Legend:
large (Lg) crabgrass [1] = test: Test C postemergence; format: in vivo, Digitaria sanguinalis; conditions: for Crabgrass, Large plant response rating / Plant response rating, Crabgrass, Large: scale 0 to 100 (0 no effect, 100 complete control)
Method in brief: (§1)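 Greenhouse herbicide screen. Pre: seeded loam/sand, sprayed at planting. Post: 1–4 leaf plants (2–18 cm) in peat-based mix. Formulation: solvent mixture + surfactant, non-phytotoxic. Readout: visual % control vs untreated, 13–15 d; dash = not tested.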

blackgrass = test: Test C postemergence; format: in vivo, Alopecurus myosuroides; conditions: for Blackgrass plant response rating / Plant response rating, Blackgrass: scale 0 to 100 (0 no effect, 100 complete control)
Method in brief: as §1

lambsquarters = test: Test C postemergence; format: in vivo, Chenopodium album; conditions: for Plant response rating, Lambsquarters / Lambsquarters plant response rating: scale 0 to 100 (0 no effect, 100 complete control)
Method in brief: as §1

barnyardgrass [2] = test: Test A preemergence; format: in vivo, Echinochloa crus-galli
Method in brief: (§2)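 Visual 0–100 rating (100 = complete control) taken about 10 d post-treatment relative to untreated checks. Preemergence: directed soil spray on sown loam/sand pots. Postemergence: seedlings 2–10 cm, 1–2 leaf. Non-phytotoxic solvent formulation with surfactant.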

galium = test: Test C postemergence; format: in vivo, Galium aparine; conditions: for Galium plant response rating / Plant response rating, Galium: scale 0 to 100 (0 no effect, 100 complete control)
Method in brief: as §1

Italian ryegrass = test: Test C postemergence; format: in vivo, Lolium multiflorum; conditions: for Plant response rating, Ryegrass, Italian / Ryegrass, Italian plant response rating: scale 0 to 100 (0 no effect, 100 complete control)
Method in brief: as §1

soybean = test: Test C postemergence; format: in vivo, Glycine max; conditions: for Plant response rating, Soybean / Soybean plant response rating: scale 0 to 100 (0 no effect, 100 complete control)
Method in brief: as §1

ragweed = test: Test C postemergence; format: in vivo, Ambrosia elatior; conditions: for Plant response rating, Ragweed / Ragweed plant response rating: scale 0 to 100 (0 no effect, 100 complete control)
Method in brief: as §1

barnyardgrass [3] = test: Test C postemergence; format: in vivo, Echinochloa crus-galli; conditions: for Barnyardgrass plant response rating / Plant response rating, Barnyardgrass: scale 0 to 100 (0 no effect, 100 complete control)
Method in brief: as §1

wheat = test: Test A preemergence; format: in vivo, Triticum aestivum
Method in brief: as §2

large (Lg) crabgrass [4] = test: Test A postemergence; format: in vivo, Digitaria sanguinalis
Method in brief: as §2

sedge, umbrella = test: Test B flooded paddy test; format: in vivo, Cyperus difformis; conditions: Flood, 250 g ai/ha; 0 to 100 scale where 0 is no effect and 100 is complete control
Method in brief: (§3)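 Visual ratings on a 0 to 100 scale, where 100 means complete control, compared treated plants with controls after 13 to 15 days in a greenhouse. Treatment went into paddy water 3 cm deep over the soil, applied to plants at the 2-leaf stage.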

rice = test: Test B flooded paddy test; format: in vivo, Oryza sativa; conditions: Flood, 250 g ai/ha; 0 to 100 scale where 0 is no effect and 100 is complete control
Method in brief: as §3

yellow nutsedge = test: Test C postemergence; format: in vivo, Cyperus esculentus; conditions: for Plant response rating, Nutsedge, Yellow / Nutsedge, Yellow plant response rating: scale 0 to 100 (0 no effect, 100 complete control)
Method in brief: as §1

pigweed = test: Test A postemergence; format: in vivo, Amaranthus retroflexus
Method in brief: as §2

[5] = 16 g ai/ha, postemergence, visual rating, 13 to 15 days
[6] = Postemergence, 31 g ai/ha, 13 to 15 days
[7] = 125 g ai/ha, 0 to 100 scale where 0 is no effect and 100 is complete control
[8] = 500 g ai/ha, 0 to 100 scale where 0 is no effect and 100 is complete control
[9] = 16 g ai/ha, postemergence, 0 is no effect, 100 is complete control
[10] = 31 g ai/ha, postemergence, visual rating, 13 to 15 days
[11] = 125 g ai/ha, postemergence, visual rating
[12] = Postemergence, 62 g ai/ha, 13 to 15 days
[13] = 1000 g ai/ha, 0 to 100 scale, 0 no effect, 100 complete control, approx. 10 days
[14] = 1000 g ai/ha, 0 to 100 scale, 0 no effect, 100 complete control

N#Cc1cccc(Oc2ncc(Cl)cn2)c1-n1cc(OC(F)F)cn1 [Compound 97]
Crabgrass, Large plant response rating (large (Lg) crabgrass [1]; [5]): 5
Plant response rating (0 to 100), Crabgrass, Large (large (Lg) crabgrass [1]; 125 g ai/ha, postemergence): 55
Plant response rating, Crabgrass, Large (large (Lg) crabgrass [1]; [6]): 10
Plant response rating, Crabgrass, Large (large (Lg) crabgrass [1]; Postemergence, 62 g ai/ha): 15
Blackgrass plant response rating (blackgrass; [5]): 10
Plant response rating (0 to 100), Blackgrass (blackgrass; 125 g ai/ha, postemergence): 40
Plant response rating, Blackgrass (blackgrass; [6]): 5
Plant response rating, Blackgrass (blackgrass; Postemergence, 62 g ai/ha): 10
Plant response rating (0 to 100), Lambsquarters (lambsquarters; 125 g ai/ha, postemergence): 98
Plant response rating, Lambsquarters (lambsquarters; [6]): 75
Plant response rating, Lambsquarters (lambsquarters; Postemergence, 62 g ai/ha): 80
Plant response rating, Barnyardgrass (barnyardgrass [2]; [7]): 80
Barnyardgrass plant response rating (barnyardgrass [2]; 500 g ai/ha, 0 to 100 scale, 0 no effect, 100 complete control, approx. 10 days): 100
Galium plant response rating (galium; [5]): 55
Plant response rating (0 to 100), Galium (galium; 125 g ai/ha, postemergence): 90
Plant response rating, Galium (galium; [6]): 75
Plant response rating, Galium (galium; Postemergence, 62 g ai/ha): 85
Plant response rating (0 to 100), Ryegrass, Italian (Italian ryegrass; 125 g ai/ha, postemergence): 15
Plant response rating, Ryegrass, Italian (Italian ryegrass; [6]): 5
Plant response rating, Ryegrass, Italian (Italian ryegrass; Postemergence, 62 g ai/ha): 5
Plant response rating (0 to 100), Soybean (soybean; 125 g ai/ha, postemergence): 95
Plant response rating, Soybean (soybean; [6]): 60
Plant response rating, Soybean (soybean; Postemergence, 62 g ai/ha): 90
Plant response rating (0 to 100), Ragweed (ragweed; 125 g ai/ha, postemergence): 70
Plant response rating, Ragweed (ragweed; [6]): 40
Plant response rating, Ragweed (ragweed; Postemergence, 62 g ai/ha): 60
Barnyardgrass plant response rating (barnyardgrass [3]; [5]): 10
Plant response rating (0 to 100), Barnyardgrass (barnyardgrass [3]; 125 g ai/ha, postemergence): 15
Plant response rating, Barnyardgrass (barnyardgrass [3]; [6]): 10
Plant response rating, Barnyardgrass (barnyardgrass [3]; Postemergence, 62 g ai/ha): 10
Plant response rating, Wheat (wheat; [7]): 0
Plant response rating, Crabgrass, Large (large (Lg) crabgrass [4]; [7]): 90
Plant response rating, Crabgrass, Large (large (Lg) crabgrass [4]; [8]): 100
Plant response rating, Sedge, Umbrella (sedge, umbrella): 90
Plant response rating, Rice (rice): 0
Plant response rating (0 to 100), Nutsedge, Yellow (yellow nutsedge; 125 g ai/ha, postemergence): 5
Plant response rating, Nutsedge, Yellow (yellow nutsedge; [6]): 5
Plant response rating, Nutsedge, Yellow (yellow nutsedge; Postemergence, 62 g ai/ha): 5
Plant response rating, Pigweed (pigweed; [7]): 100
Plant response rating, Pigweed (pigweed; [8]): 100

Clc1cnc(Oc2ccccc2-n2cc(Br)nn2)nc1 [Compound 223]
Plant response rating (0 to 100), Crabgrass, Large (large (Lg) crabgrass [1]; [9]): 5
Crabgrass, Large plant response rating (large (Lg) crabgrass [1]; [10]): 5
Plant response rating, Crabgrass, Large (large (Lg) crabgrass [1]; [11]): 5
Plant response rating, Crabgrass, Large (large (Lg) crabgrass [1]; [12]): 5
Plant response rating (0 to 100), Blackgrass (blackgrass; [9]): 0
Blackgrass plant response rating (blackgrass; [10]): 30
Plant response rating, Blackgrass (blackgrass; [11]): 0
Plant response rating, Blackgrass (blackgrass; [12]): 5
Plant response rating (0 to 100), Lambsquarters (lambsquarters; [9]): 60
Lambsquarters plant response rating (lambsquarters; [10]): 75
Plant response rating, Lambsquarters (lambsquarters; [11]): 95
Plant response rating, Lambsquarters (lambsquarters; [12]): 75
Barnyardgrass plant response rating (barnyardgrass [2]; [13]): 100
Plant response rating (0 to 100), Galium (galium; [9]): 75
Galium plant response rating (galium; [10]): 80
Plant response rating, Galium (galium; [11]): 100
Plant response rating, Galium (galium; [12]): 80
Plant response rating (0 to 100), Ryegrass, Italian (Italian ryegrass; [9]): 0
Ryegrass, Italian plant response rating (Italian ryegrass; [10]): 0
Plant response rating, Ryegrass, Italian (Italian ryegrass; [11]): 5
Plant response rating, Ryegrass, Italian (Italian ryegrass; [12]): 0
Plant response rating (0 to 100), Soybean (soybean; [9]): 60
Soybean plant response rating (soybean; [10]): 65
Plant response rating, Soybean (soybean; [11]): 95
Plant response rating, Soybean (soybean; [12]): 85
Plant response rating (0 to 100), Ragweed (ragweed; [9]): 10
Ragweed plant response rating (ragweed; [10]): 20
Plant response rating, Ragweed (ragweed; [11]): 75
Plant response rating, Ragweed (ragweed; [12]): 55
Plant response rating (0 to 100), Barnyardgrass (barnyardgrass [3]; [9]): 0
Barnyardgrass plant response rating (barnyardgrass [3]; [10]): 0
Plant response rating, Barnyardgrass (barnyardgrass [3]; [11]): 5
Plant response rating, Barnyardgrass (barnyardgrass [3]; Postemergence, 62 g ai/ha): 5
Wheat plant response rating (wheat; [13]): 80
Plant response rating, Crabgrass, Large (large (Lg) crabgrass [4]; [14]): 100
Plant response rating, Sedge, Umbrella (sedge, umbrella): 85
Plant response rating, Rice (rice): 50
Plant response rating (0 to 100), Nutsedge, Yellow (yellow nutsedge; [9]): 5
Nutsedge, Yellow plant response rating (yellow nutsedge; [10]): 5
Plant response rating, Nutsedge, Yellow (yellow nutsedge; [11]): 5
Plant response rating, Nutsedge, Yellow (yellow nutsedge; [12]): 5
Plant response rating, Pigweed (pigweed; [14]): 100

Clc1cnc(Oc2cccc(Cl)c2-n2cc(Cl)cn2)nc1 [Compound 220]
Plant response rating (0 to 100), Crabgrass, Large (large (Lg) crabgrass [1]; [9]): 5
Crabgrass, Large plant response rating (large (Lg) crabgrass [1]; [10]): 5
Plant response rating, Crabgrass, Large (large (Lg) crabgrass [1]; [11]): 5
Plant response rating, Crabgrass, Large (large (Lg) crabgrass [1]; [12]): 5
Plant response rating (0 to 100), Blackgrass (blackgrass; [9]): 0
Blackgrass plant response rating (blackgrass; [10]): 60
Plant response rating, Blackgrass (blackgrass; [11]): 50
Plant response rating, Blackgrass (blackgrass; [12]): 40
Plant response rating (0 to 100), Lambsquarters (lambsquarters; [9]): 15
Lambsquarters plant response rating (lambsquarters; [10]): 50
Plant response rating, Lambsquarters (lambsquarters; [11]): 75
Plant response rating, Lambsquarters (lambsquarters; [12]): 55
Barnyardgrass plant response rating (0 to 100 scale, 0 is no effect, 100 is complete control) (barnyardgrass [2]; 125 g ai/ha): 60
Barnyardgrass plant response rating (barnyardgrass [2]; [8]): 100
Plant response rating (0 to 100), Galium (galium; [9]): 50
Galium plant response rating (galium; [10]): 70
Plant response rating, Galium (galium; [11]): 95
Plant response rating, Galium (galium; [12]): 80
Plant response rating (0 to 100), Ryegrass, Italian (Italian ryegrass; [9]): 0
Ryegrass, Italian plant response rating (Italian ryegrass; [10]): 0
Plant response rating, Ryegrass, Italian (Italian ryegrass; [11]): 10
Plant response rating, Ryegrass, Italian (Italian ryegrass; [12]): 5
Plant response rating (0 to 100), Soybean (soybean; [9]): 40
Soybean plant response rating (soybean; [10]): 65
Plant response rating, Soybean (soybean; [11]): 95
Plant response rating, Soybean (soybean; [12]): 60
Plant response rating (0 to 100), Ragweed (ragweed; [9]): 10
Ragweed plant response rating (ragweed; [10]): 10
Plant response rating, Ragweed (ragweed; [11]): 25
Plant response rating, Ragweed (ragweed; [12]): 15
Plant response rating (0 to 100), Barnyardgrass (barnyardgrass [3]; [9]): 5
Barnyardgrass plant response rating (barnyardgrass [3]; [10]): 10
Plant response rating, Barnyardgrass (barnyardgrass [3]; [11]): 15
Plant response rating, Barnyardgrass (barnyardgrass [3]; Postemergence, 62 g ai/ha): 10
Wheat plant response rating (0 to 100 scale) (wheat; 125 g ai/ha): 0
Wheat plant response rating (wheat; [8]): 20
Crabgrass, Large plant response rating (large (Lg) crabgrass [4]; [7]): 100
Plant response rating, Crabgrass, Large (large (Lg) crabgrass [4]; [8]): 100
Plant response rating, Sedge, Umbrella (sedge, umbrella): 90
Plant response rating, Rice (rice): 0
Plant response rating (0 to 100), Nutsedge, Yellow (yellow nutsedge; [9]): 10
Nutsedge, Yellow plant response rating (yellow nutsedge; [10]): 0
Plant response rating, Nutsedge, Yellow (yellow nutsedge; [11]): 5
Plant response rating, Nutsedge, Yellow (yellow nutsedge; [12]): 0
Pigweed plant response rating (pigweed; [7]): 100
Plant response rating, Pigweed (pigweed; [8]): 100

Source: patent US9695155B2, “Herbicidal substituted pyrimidinyloxy benzene compounds” (E. I. DU PONT DE NEMOURS AND COMPANY, priority 2013, dated 2017)
